Experimental data: patent publication US11957671B2, “Benzodioxane modulators of leukotriene A4 hydrolase (LTA4H) for prevention and treatment of aging-associated diseases” (Alkahest, Inc., priority 2021, dated 2024)
pIC50: −log10 of the molar value.

System: synthesis of LTB4 in human whole blood
Assay: human whole blood (HWB) assay, LTB4 production inhibition
Type: cell-based
Settings: calcimycin 20 μM
Method: The compounds of the invention are additionally tested in a human whole blood (HWB) assay to determine their ability to inhibit the synthesis of LTB4 in a cellular system. Compounds are combined with heparinized human whole blood and incubated for 15 minutes at 37° C. Calcimycin (20 μM final, prepared in phosphate-buffered saline, pH 7.4) is then added and the mixture is incubated for another 30 minutes at 37° C. The samples are centrifuged for 5 min at low speed (1500×g) and the plasma layer is removed. Plasma LTB4 concentrations are then measured using an antibody-based homogenous time-resolved fluorescence method (CisBio, Bedford, Mass.). In general, the preferred potency range (IC50) of compounds in the HWB assay is between 10 nM to 10 μM, the more preferred potency range is 10 nM to 1 μM, and the most preferred potency range is 10 nM to 100 nM.

Row | pIC50 | Structure (SMILES)
1 | 7.03 | CC(=O)N1CCN(Cc2ccc([C@H]3COc4cccnc4O3)cc2)CC1 [Example 185, 1-(4-{4-[(3S)-2,3-dihydro[1,4]dioxino[2,3-b]pyridin-3-yl]benzyl}piperazin-1-yl)ethanone]
2 | 6.80 | c1cnc2c(c1)OC[C@H](c1ccc(CN3CCn4cnnc4C3)cc1)O2 [Example 156, (3S)-3-[4-(5,6-dihydro[1,2,4]triazolo[4,3-a]pyrazin-7(8H)-ylmethyl)phenyl]-2,3-dihydro[1,4]dioxino[2,3-b]pyridine]
3 | 7.88 | c1cnc2c(c1)OC[C@H](c1ccc(CN3CCCCCC3)cc1)O2 [Example 139, (3S)-3-[4-(azepan-1-ylmethyl)phenyl]-2,3-dihydro[1,4]dioxino[2,3-b]pyridine]
4 | 6.75 | NC(=O)NC1CCN(Cc2ccc([C@H]3COc4cccnc4O3)cc2)CC1 [Example 187, 1-(1-{4-[(3S)-2,3-dihydro[1,4]dioxino[2,3-b]pyridin-3-yl]benzyl}piperidin-4-yl)urea]
5 | 7.02 | c1cnc2c(c1)OC[C@H](c1ccc(CN3CCOCC3)cc1)O2 [Example 204, (3S)-3-[4-(morpholin-4-ylmethyl)phenyl]-2,3-dihydro[1,4]dioxino[2,3-b]pyridine]
6 | 7.02 | CCCCN(Cc1ccc(C(=O)O)cc1)Cc1ccc([C@H]2COc3ccccc3O2)cc1 [Example 237]
7 | 7.56 | COC1CCCN(Cc2ccc([C@H]3COc4cccnc4O3)cc2)C1 (stereo partly drawn) [Example 158, (3S)-3-{4-[(3-methoxypiperidin-1-yl)methyl]phenyl}-2,3-dihydro[1,4]dioxino[2,3-b]pyridine]
8 | 7.58 | CS(=O)(=O)NC1CCN(Cc2ccc([C@H]3COc4cccnc4O3)cc2)CC1 [Example 190, N-(1-{4-[(3S)-2,3-dihydro[1,4]dioxino[2,3-b]pyridin-3-yl]benzyl}piperidin-4-yl)methanesulfonamide]
9 | 7.04 | CC(C)(O)C(=O)NC1CCN(Cc2ccc([C@H]3COc4ccccc4O3)cc2)CC1 [Example 220, N-(1-{4-[(2S)-2,3-dihydro-1,4-benzodioxin-2-yl]benzyl}piperidin-4-yl)-2-hydroxy-2-methylpropanamide]
10 | 7.14 | c1cnc2c(c1)OC[C@H](c1ccc(CNC3CCC3)cc1)O2 [Example 173, N-{4-[(3S)-2,3-dihydro[1,4]dioxino[2,3-b]pyridin-3-yl]benzyl}cyclobutanamine]

The remaining lines, values behind:

Row | Structure (SMILES) | pIC50
11 | OC[C@H]1CCCC[C@H]1NCc1ccc([C@H]2COc3ccccc3O2)cc1 [Example 87, [(1S,2R)-2-({4-[(2S)-2,3-dihydro-1,4-benzodioxin-2-yl]benzyl)amino)cyclohexyl] methanol] | 6.57
12 | O=C(O)C1CCN(Cc2ccc([C@H]3COc4ccccc4O3)cc2)C1 (stereo partly drawn) [Example 61, 1-{4-[(2S)-2,3-dihydro-1,4-benzodioxin-2-yl]benzyl}pyrrolidine-3-carboxylic acid] | 6.60
13 | c1ccc2c(c1)OC[C@H](c1ccc(CN3CCC[C@H]4CCCC[C@@H]43)cc1)O2 [Example 85, (4aR,8aS)-1-{4-[(2S)-2,3-dihydro-1,4-benzodioxin-2-yl]benzyl}decahydroquinoline] | 6.52
14 | O=C1CCCN1CC1CCN(Cc2ccc([C@H]3COc4ccccc4O3)cc2)CC1 [Example 99, 1-[(1-{4-[(2S)-2,3-dihydro-1,4-benzodioxin-2-yl]benzyl}piperidin-4-yl)methyl]pyrrolidin-2-one] | 7.02
15 | CC1CCN(Cc2ccc([C@H]3COc4cccnc4O3)cc2)CC1 [Example 137, (3S)-3-{4-[(4-methylpiperidin-1-yl)methyl]phenyl}-2,3-dihydro[1,4]dioxino[2,3-b]pyridine] | 7.56
16 | CC(=O)N1CCCC12CCN(Cc1ccc([C@H]3COc4ccccc4O3)cc1)C2 (stereo partly drawn) [Example 118, 1-(7-{4-[(2S)-2,3-dihydro-1,4-benzodioxin-2-yl]benzyl}-1,7-diazaspiro[4.4]non-1-yl)ethanone] | 6.59
17 | O=C(O)CCCC1CCN(Cc2ccc(C3COc4ccccc4O3)cc2)CC1 (racemic) [Example 26, 4-{1-[4-(2,3-dihydro-1,4-benzodioxin-2-yl)benzyl]piperidin-4-yl}butanoic acid] | 6.51
